Data: ChEMBL document CHEMBL4507299, “Data for DCP probe PF-04554878” (2021)

How the values were obtained:
[1] = system: Tyrosine-protein kinase ABL1 (Homo sapiens), P00519 [Q252H]
[2] = target: Mitogen-activated protein kinase kinase kinase 5 (Homo sapiens) (UniProt Q99683)
[3] = target: Tyrosine-protein kinase Blk (Homo sapiens) (UniProt P51451)
[4] = target: Cyclin-dependent kinase 8 (Homo sapiens) (UniProt P49336)
[5] = target: Casein kinase I isoform alpha-like (Homo sapiens) (UniProt Q8N752)
[6] = target: Casein kinase I isoform epsilon (Homo sapiens) (UniProt P49674)
[7] = target: Casein kinase II subunit alpha' (Homo sapiens) (UniProt P19784)
[8] = target: Epithelial discoidin domain-containing receptor 1 (Homo sapiens) (UniProt Q08345)
[9] = system: Epidermal growth factor receptor (Homo sapiens), P00533 [UNDEFINED MUTATION]
[10] = target: Ephrin type-B receptor 3 (Homo sapiens) (UniProt P54753)
[11] = target: Mitogen-activated protein kinase 3 (Homo sapiens) (UniProt P27361)
[12] = target: Mitogen-activated protein kinase 1 (Homo sapiens) (UniProt P28482)
[13] = target: Tyrosine-protein kinase Fer (Homo sapiens) (UniProt P16591)
[14] = target: Receptor-type tyrosine-protein kinase FLT3 (Homo sapiens) (UniProt P36888)
[15] = target: Rhodopsin kinase GRK1 (Homo sapiens) (UniProt Q15835)
[16] = target: Homeodomain-interacting protein kinase 3 (Homo sapiens) (UniProt Q9H422)
[17] = target: T1, Inhibitor of nuclear factor kappa-B kinase subunit beta (Homo sapiens) (UniProt O14920)
T1 sequence (whole entry): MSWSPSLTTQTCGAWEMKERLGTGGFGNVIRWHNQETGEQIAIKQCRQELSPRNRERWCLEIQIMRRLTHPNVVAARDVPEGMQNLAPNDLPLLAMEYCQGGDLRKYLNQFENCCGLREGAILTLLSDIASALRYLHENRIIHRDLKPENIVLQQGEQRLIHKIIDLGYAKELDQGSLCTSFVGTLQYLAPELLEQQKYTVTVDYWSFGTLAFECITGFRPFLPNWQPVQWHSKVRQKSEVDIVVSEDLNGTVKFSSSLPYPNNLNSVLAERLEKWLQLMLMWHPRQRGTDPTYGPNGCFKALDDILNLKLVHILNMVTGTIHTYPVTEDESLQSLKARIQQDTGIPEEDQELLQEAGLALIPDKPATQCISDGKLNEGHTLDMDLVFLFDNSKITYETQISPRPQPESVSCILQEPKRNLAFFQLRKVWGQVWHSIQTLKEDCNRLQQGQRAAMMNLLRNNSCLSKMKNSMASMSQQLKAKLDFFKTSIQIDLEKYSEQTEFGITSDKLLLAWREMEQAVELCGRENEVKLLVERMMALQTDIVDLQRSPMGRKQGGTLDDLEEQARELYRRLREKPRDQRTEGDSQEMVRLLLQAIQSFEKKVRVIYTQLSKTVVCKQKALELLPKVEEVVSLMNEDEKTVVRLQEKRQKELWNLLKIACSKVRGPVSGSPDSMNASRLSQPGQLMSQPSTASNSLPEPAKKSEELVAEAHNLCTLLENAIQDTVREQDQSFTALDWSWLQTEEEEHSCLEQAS

[18] = target: Serine/threonine-protein kinase LATS2 (Homo sapiens) (UniProt Q9NRM7)
[19] = target: Mitogen-activated protein kinase kinase kinase kinase 4 (Homo sapiens) (UniProt O95819)
[20] = target: Tyrosine-protein kinase Mer (Homo sapiens) (UniProt Q12866)
[21] = target: MAP kinase-interacting serine/threonine-protein kinase 2 (Homo sapiens) (UniProt Q9HBH9)
[22] = target: Serine/threonine-protein kinase Nek1 (Homo sapiens) (UniProt Q96PY6)
[23] = target: Serine/threonine-protein kinase NLK (Homo sapiens) (UniProt Q9UBE8)
[24] = target: Cyclin-dependent kinase 17 (Homo sapiens) (UniProt Q00537)
[25] = target: Phosphatidylinositol 5-phosphate 4-kinase type-2 gamma (Homo sapiens) (UniProt Q8TBX8)
[26] = target: Serine/threonine-protein kinase PLK2 (Homo sapiens) (UniProt Q9NYY3)
[27] = target: cAMP-dependent protein kinase catalytic subunit PRKX (Homo sapiens) (UniProt P51817)
[28] = target: Receptor-interacting serine/threonine-protein kinase 1 (Homo sapiens) (UniProt Q13546)
[29] = target: Rho-associated protein kinase 1 (Homo sapiens) (UniProt Q13464)
[30] = target: Ribosomal protein S6 kinase alpha-6 (Homo sapiens) (UniProt Q9UK32)
[31] = target: Serine/threonine-protein kinase 16 (Homo sapiens) (UniProt O75716)
[32] = target: Serine/threonine-protein kinase TAO1 (Homo sapiens) (UniProt Q7L7X3)
[33] = target: Serine/threonine-protein kinase ULK1 (Homo sapiens) (UniProt O75385)
[34] = target: Serine/threonine-protein kinase WNK3 (Homo sapiens) (UniProt Q9BYP7)
[35] = target: Muscarinic acetylcholine receptor M1 (Homo sapiens) (UniProt P11229); conditions: Compound concentration 10.0 uM
[36] = Compound concentration 100.0 nM
[37] = Compound concentration 1000.0 nM

Sequence of Serine/threonine-protein kinase 16 (Homo sapiens) (O75716 whole entry): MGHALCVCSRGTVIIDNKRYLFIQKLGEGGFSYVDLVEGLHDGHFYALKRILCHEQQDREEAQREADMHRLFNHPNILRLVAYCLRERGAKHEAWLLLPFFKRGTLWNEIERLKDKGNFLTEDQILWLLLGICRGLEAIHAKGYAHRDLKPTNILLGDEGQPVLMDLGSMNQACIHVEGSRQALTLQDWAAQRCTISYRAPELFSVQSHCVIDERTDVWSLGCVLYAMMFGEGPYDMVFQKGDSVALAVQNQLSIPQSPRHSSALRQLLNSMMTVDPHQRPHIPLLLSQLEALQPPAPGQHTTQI
Sequence of cAMP-dependent protein kinase catalytic subunit PRKX (Homo sapiens) (P51817 whole entry): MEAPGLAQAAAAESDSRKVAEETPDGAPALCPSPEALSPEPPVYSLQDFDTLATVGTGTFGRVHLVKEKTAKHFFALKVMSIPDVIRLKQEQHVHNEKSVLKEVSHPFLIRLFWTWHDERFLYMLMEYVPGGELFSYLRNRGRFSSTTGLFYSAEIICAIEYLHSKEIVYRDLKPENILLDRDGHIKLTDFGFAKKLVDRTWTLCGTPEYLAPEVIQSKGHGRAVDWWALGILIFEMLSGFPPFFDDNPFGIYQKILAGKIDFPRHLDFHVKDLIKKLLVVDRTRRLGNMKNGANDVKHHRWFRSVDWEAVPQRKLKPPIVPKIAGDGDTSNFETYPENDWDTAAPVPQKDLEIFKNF
Sequence of Rho-associated protein kinase 1 (Homo sapiens) (Q13464 2-1354 limits assumed): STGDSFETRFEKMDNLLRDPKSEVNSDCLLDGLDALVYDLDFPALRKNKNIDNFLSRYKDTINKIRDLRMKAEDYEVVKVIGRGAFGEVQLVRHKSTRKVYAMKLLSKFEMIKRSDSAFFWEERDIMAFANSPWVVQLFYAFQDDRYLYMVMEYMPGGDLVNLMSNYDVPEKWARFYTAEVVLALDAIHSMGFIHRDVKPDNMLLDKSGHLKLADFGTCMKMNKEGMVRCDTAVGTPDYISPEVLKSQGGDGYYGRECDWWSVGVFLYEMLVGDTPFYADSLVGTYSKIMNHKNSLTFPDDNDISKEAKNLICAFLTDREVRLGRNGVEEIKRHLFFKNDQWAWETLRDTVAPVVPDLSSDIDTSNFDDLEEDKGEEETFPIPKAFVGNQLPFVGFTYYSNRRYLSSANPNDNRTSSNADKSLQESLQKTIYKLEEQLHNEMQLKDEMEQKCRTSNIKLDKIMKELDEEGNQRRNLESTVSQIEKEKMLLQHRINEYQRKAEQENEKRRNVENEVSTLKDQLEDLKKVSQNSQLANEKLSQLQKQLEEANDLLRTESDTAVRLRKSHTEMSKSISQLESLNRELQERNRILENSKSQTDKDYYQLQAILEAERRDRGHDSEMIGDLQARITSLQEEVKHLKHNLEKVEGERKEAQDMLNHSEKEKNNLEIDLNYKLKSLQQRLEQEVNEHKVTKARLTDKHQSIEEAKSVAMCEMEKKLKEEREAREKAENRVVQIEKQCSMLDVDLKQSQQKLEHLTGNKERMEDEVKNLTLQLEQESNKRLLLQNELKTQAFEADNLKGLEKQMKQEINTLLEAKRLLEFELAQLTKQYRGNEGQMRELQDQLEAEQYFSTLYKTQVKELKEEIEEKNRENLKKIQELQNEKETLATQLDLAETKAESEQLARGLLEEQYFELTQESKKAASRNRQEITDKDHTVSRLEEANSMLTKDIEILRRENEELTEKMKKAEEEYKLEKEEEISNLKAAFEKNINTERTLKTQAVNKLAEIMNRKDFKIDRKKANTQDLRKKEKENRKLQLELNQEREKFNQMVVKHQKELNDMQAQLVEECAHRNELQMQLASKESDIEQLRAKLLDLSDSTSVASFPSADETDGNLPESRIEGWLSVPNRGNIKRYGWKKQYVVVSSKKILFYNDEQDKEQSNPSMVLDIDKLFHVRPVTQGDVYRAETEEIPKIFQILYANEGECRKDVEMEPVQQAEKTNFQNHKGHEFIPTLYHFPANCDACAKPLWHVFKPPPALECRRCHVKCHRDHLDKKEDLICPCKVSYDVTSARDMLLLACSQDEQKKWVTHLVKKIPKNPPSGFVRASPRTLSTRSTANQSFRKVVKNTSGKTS
Sequence of Cyclin-dependent kinase 8 (Homo sapiens) (P49336 whole entry, canonical isoform): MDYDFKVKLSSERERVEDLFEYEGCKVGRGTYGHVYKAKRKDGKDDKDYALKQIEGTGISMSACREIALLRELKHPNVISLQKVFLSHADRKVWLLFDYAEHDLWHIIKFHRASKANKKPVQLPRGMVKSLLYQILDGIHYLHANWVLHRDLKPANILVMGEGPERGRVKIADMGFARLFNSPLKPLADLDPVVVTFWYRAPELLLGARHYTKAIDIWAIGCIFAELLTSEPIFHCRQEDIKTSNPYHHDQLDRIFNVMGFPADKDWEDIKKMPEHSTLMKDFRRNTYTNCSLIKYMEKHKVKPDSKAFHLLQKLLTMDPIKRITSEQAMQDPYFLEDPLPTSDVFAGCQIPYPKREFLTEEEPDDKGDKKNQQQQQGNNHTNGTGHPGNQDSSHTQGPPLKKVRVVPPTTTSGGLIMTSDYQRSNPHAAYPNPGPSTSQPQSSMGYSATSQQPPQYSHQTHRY
Sequence of Epithelial discoidin domain-containing receptor 1 (Homo sapiens) (Q08345 whole entry, the tested form may be a part): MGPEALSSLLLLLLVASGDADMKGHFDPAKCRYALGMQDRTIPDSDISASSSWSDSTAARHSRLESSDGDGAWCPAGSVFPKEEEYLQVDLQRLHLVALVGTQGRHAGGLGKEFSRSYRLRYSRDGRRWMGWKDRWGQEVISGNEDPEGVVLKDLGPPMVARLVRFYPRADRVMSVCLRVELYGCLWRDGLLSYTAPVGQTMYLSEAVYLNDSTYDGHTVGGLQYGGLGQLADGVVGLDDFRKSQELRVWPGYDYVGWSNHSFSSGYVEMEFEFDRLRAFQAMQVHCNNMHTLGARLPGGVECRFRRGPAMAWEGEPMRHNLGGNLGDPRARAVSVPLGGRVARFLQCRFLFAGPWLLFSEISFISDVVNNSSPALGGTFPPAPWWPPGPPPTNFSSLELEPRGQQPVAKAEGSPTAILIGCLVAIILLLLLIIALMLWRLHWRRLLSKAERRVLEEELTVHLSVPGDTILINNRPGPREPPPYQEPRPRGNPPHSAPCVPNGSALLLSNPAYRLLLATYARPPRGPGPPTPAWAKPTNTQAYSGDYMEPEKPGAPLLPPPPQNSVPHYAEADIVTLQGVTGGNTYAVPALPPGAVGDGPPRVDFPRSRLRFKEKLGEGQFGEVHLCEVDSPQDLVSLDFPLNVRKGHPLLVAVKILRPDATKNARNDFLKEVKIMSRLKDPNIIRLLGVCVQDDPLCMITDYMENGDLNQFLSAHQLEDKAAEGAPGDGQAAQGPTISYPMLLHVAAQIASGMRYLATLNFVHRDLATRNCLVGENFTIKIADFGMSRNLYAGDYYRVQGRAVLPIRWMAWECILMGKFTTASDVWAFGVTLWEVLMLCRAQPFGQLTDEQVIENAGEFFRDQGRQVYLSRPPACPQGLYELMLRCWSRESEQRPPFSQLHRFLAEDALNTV
Sequence of Ephrin type-B receptor 3 (Homo sapiens) (P54753 whole entry): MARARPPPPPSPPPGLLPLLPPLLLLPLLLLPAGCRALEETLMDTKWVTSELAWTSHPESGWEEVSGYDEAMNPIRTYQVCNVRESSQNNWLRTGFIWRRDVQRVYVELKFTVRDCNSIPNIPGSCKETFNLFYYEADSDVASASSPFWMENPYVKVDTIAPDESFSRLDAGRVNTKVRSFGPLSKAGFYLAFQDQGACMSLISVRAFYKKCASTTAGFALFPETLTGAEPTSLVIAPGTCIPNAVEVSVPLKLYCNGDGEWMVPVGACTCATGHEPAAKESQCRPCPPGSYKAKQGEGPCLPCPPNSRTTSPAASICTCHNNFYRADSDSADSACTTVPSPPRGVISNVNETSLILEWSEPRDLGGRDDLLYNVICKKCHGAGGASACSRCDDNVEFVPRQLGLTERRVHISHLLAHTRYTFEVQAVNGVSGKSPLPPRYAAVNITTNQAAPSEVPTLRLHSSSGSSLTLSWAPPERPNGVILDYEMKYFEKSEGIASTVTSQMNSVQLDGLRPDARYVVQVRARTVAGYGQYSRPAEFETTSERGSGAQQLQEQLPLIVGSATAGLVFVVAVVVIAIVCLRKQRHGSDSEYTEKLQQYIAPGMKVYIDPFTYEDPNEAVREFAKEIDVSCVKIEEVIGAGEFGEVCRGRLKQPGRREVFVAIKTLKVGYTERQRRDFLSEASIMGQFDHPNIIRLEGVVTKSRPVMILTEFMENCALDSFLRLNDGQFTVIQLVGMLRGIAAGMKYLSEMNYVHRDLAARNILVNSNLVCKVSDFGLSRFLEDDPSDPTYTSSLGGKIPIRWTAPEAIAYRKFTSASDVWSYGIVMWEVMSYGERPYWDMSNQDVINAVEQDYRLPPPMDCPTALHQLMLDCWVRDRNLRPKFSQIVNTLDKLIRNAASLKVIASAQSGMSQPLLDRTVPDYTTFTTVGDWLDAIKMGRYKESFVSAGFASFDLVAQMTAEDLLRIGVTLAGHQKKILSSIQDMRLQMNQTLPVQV
Sequence of Mitogen-activated protein kinase 3 (Homo sapiens) (P27361 whole entry): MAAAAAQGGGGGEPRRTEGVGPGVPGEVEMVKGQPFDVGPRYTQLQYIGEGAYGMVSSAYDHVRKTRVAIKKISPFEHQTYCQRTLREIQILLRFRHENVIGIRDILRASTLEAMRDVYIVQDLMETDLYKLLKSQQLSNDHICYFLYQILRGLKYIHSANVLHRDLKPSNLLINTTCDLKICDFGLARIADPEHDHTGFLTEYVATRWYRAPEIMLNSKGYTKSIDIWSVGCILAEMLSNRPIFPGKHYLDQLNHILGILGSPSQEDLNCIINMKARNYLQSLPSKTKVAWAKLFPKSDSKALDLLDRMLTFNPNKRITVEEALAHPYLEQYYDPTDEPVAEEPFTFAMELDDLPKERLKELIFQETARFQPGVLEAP

CNC(=O)c1ccc(Nc2ncc(C(F)(F)F)c(NCc3nccnc3N(C)S(C)(=O)=O)n2)cc1 [DEFACTINIB]
residual activity [1, 36]: 100% | residual activity [2, 36]: 100% | residual activity [3, 36]: 78% | residual activity [4, 36]: 50% | residual activity [5, 36]: 77% | residual activity [6, 36]: 100% | residual activity [7, 36]: 28% | residual activity [8, 36]: 100% | residual activity [9, 36]: 93% | residual activity [10, 36]: 87% | residual activity [11, 36]: 86% | residual activity [12, 36]: 76% | residual activity [13, 36]: 83% | residual activity [14, 36]: 46% | residual activity [15, 36]: 99% | residual activity [16, 36]: 47% | residual activity [17, 36]: 100% | residual activity [18, 36]: 65% | residual activity [19, 36]: 98% | residual activity [20, 36]: 54% | residual activity [21, 36]: 100% | residual activity [22, 36]: 75% | residual activity [23, 36]: 100% | residual activity [24, 36]: 88% | residual activity [25, 36]: 40% | residual activity [26, 36]: 77% | residual activity [27, 36]: 95% | residual activity [28, 36]: 100% | residual activity [29, 36]: 100% | residual activity [30, 36]: 49% | residual activity [31, 36]: 7.7% | residual activity [32, 36]: 50% | residual activity [33, 36]: 47% | residual activity [34, 36]: 100% | inhibition [35]: 19.3%

CN(c1ccnc(CNc2nc(Nc3ccc4c(c3)CC(=O)N4)ncc2C(F)(F)F)n1)S(C)(=O)=O [PF-00911705]
residual activity [1, 37]: 49% | residual activity [2, 37]: 100% | residual activity [3, 37]: 40% | residual activity [4, 37]: 97% | residual activity [5, 37]: 81% | residual activity [6, 37]: 100% | residual activity [7, 37]: 6.7% | residual activity [8, 37]: 80% | residual activity [9, 37]: 83% | residual activity [10, 37]: 95% | residual activity [11, 37]: 96% | residual activity [12, 37]: 70% | residual activity [13, 37]: 78% | residual activity [14, 37]: 23% | residual activity [15, 37]: 74% | residual activity [16, 37]: 48% | residual activity [17, 37]: 78% | residual activity [18, 37]: 42% | residual activity [19, 37]: 82% | residual activity [20, 37]: 21% | residual activity [21, 37]: 91% | residual activity [22, 37]: 51% | residual activity [23, 37]: 98% | residual activity [24, 37]: 85% | residual activity [25, 37]: 42% | residual activity [26, 37]: 0.5% | residual activity [27, 37]: 15% | residual activity [28, 37]: 100% | residual activity [29, 37]: 49% | residual activity [30, 37]: 79% | residual activity [31, 37]: 1.5% | residual activity [32, 37]: 3.7% | residual activity [33, 37]: 1.2% | residual activity [34, 37]: 79% | inhibition [35]: -6.58%
